Data taken from patent publication US10744122B2, “Transdermal therapeutic system containing valentonin and use thereof as a medicament” (Soeur Josefa Menendez, priority 2015, dated 2020).
Like-named read-outs stand apart in the source and are kept apart here.

What was measured:
[1] = Stability in acidic gastric medium; type: physicochemical
[2] = Extrapolation to humans of the PK parameter values observed in dogs; type: in vivo; settings: human, for a body weight of 64 kg in humans, extrapolated from dogs, read-out: Vdss
Excerpt: As the pharmacokinetic profiles, i.e., the pharmacokinetic parameter values, are identical in humans and dogs, just as in all […] animals, it is possible to extrapolate to humans the PK parameter values observed in dogs.

[3] = Stability of melatonin in frozen human plasma during freeze-thaw cycles (HPLC-MS/MS); type: in vitro ADME; settings: human plasma samples stored at about −20° C.
Description: Between each cycle, the samples will be maintained under storage temperature conditions (about −20° C.) identical to those used for normal analysis of the samples.

[4] = cited from earlier work
[5] = Stability of the plasma extract in the injection solvent at about +4° C.; type: physicochemical, human; settings: for Deviation T0 + 24 h/T0: stored on an autosampler
Description: The plasma extracts will be analyzed repeatedly during the validation period in order to check for possible degradation of the compounds during storage in the solvent at about +4° C. The evaluation of stability is based on the back-calculated concentrations, which should be within ±15% (except for LOQ±20%), and an acceptable chromatographic peak shape.

C=C1c2[nH]c3ccc(OC)cc3c2CCN1C(C)=O [Valentonin, 2-acetyl-6-methoxy-1-methylene-3,4-dihydro-β-carboline]
Stability in acidic gastric medium [1]: completely hydrolyzed in acidic gastric medium
Stability in acidic gastric medium ([1]; listed as VLT): completely degraded in acidic gastric medium
Vd ([2]; in vivo): 320 L

COc1ccc2[nH]cc(CCNC(C)=O)c2c1 [melatonin]
Effect of freeze-thaw cycles on stability [3]: no effect on the stability
Maximum plasma concentrations observed from 1 a.m. onwards, mean value ([4]; 12 older subjects): 45.6 pg/mL
Maximum plasma concentrations observed from 1 a.m. onwards, mean value ([4]; 12 young subjects): 54.5 pg/mL
Deviation T0 + 24 h/T0 ([5]; 2 pg/ml): 1.65%
Deviation T0 + 24 h/T0 ([5]; 200 pg/ml): 3.33%
Time sample extracts were stable in the injection solvent ([5]; injection vials stored at about +4° C., after the first injection): at least 24 hours

COc1ccc2[nH]c3c(c2c1)CCN=C3C [6-Methoxyharmalan, 6-methoxy-1-methyl-3,4-dihydro-β-carboline]
Vd ([2]; plasma, intravenous): 960 L
